Measurements taken from PMC8073907, “Peptide targeting of lysophosphatidylinositol-sensing GPR55 for osteoclastogenesis tuning” (Cell Communication and Signaling : CCS, 2021).

What was measured:
Type in all cases: cell-based, human
[1] = tested on: ssGPR55-K80A and ssGPR55-Q87A; assay: LPI-induced MAPK activation in shGPR55-HeLa clones expressing ssGPR55 mutants; conditions: 10 µM 18:0 LPI
Excerpt: The construct of haemagglutinin (HA)-tagged human GPR55 in pcDNA3 (HA-GPR55) was a gift from Prof. K. Mackie, Indiana University, Bloomington, IN, USA [39], while the construct ss-3 × HA-GPR55 in pcDNA3.1 (ssGPR55) with a triple HA tag at the N-terminus and an optimised signal sequence (ss, derived from amino acids 1–33 of the human growth hormone: […]) for efficient surface expression was from Prof. A. Irving, Dundee University, UK [40]. For both constructs, mutations were introduced by site-directed mutagenesis using QuickChange kits (Stratagene, La Jolla, CA, USA), according to the manufacturer instructions. The primers for the K80A mutation were 5′-[…]-3′ and 5′-[…]-3′ (Tm, 70.6 °C), and for Q87A were 5′-[…]-3′ and 5′-[…]-3′ (Tm, 73.1 °C).
(§1) HeLa cells were plated at 1.5 × 10^5 cells/well in six-well plates in their growth medium without antibiotics. Twenty-four hours later, the cells were transfected with 2.5 µg/well pcDNA3.1, or the mutants ssGPR55-K80A, ssGPR55-Q87A, or 1.25 µg/well (complemented with 1.25 µg/well empty vector) ssGPR55, using Lipofectamine 2000, according to the manufacturer instructions. The different cDNA amounts were necessary to reach equivalent plasma-membrane expression of the receptors, as the mutants were expressed at lower levels, as verified by FACS analyses, and in line with previous reports.
For stable interference of GPR55, HeLa cells were plated at 1.5 × 10^5 cells/well in six-well plates in growth medium without antibiotics, and 24 h later, the cells were transfected with 1.7 µg/well OmicsLink short hairpin (sh)RNA expression clone CSHCTR001-CU6 (shCTRL) or clone HSH022476-3-CU6 (shGPR55) from GeneCopoeia (Rockville, MD, USA), using Lipofectamine 2000, according the manufacturer instructions. Forty-eight hours after transfection, HeLa clones stably expressing shRNAs were selected in growth medium containing 0.3 µg/mL puromycin. The efficiency of interference was monitored by real-time PCR using the primers listed in the Additional file 1: Table S1. HPRT1 was followed as a housekeeping gene. […]

endogenous GPR55 (HeLa) = assay: LPI-induced ERK/p38 phosphorylation in shCTRL-HeLa clones (Western blot); conditions: 10 µM soybean LPI, 10 min, mean of three independent experiments
Method: For stable interference of GPR55, HeLa cells were plated at 1.5 × 10^5 cells/well in six-well plates in growth medium without antibiotics, and 24 h later, the cells were transfected with 1.7 µg/well OmicsLink short hairpin (sh)RNA expression clone CSHCTR001-CU6 (shCTRL) or clone HSH022476-3-CU6 (shGPR55) from GeneCopoeia (Rockville, MD, USA), using Lipofectamine 2000, according the manufacturer instructions. Forty-eight hours after transfection, HeLa clones stably expressing shRNAs were selected in growth medium containing 0.3 µg/mL puromycin. The efficiency of interference was monitored by real-time PCR using the primers listed in the Additional file 1: Table S1. HPRT1 was followed as a housekeeping gene.
Twenty-four hours after transfection (HEK293T, HeLa cells or clones) or 72 h after interference (RAW264.7 cells), the cells were washed twice with HBSS^++, serum deprived (HEK293T cells for 4 h in DMEM; HeLa cells and clones for 2 h in MEM plus 2 mM glutamine and 25 mM HEPES; RAW264.7 cells for 2 h in DMEM), washed once again with HBSS^++, incubated in stimulation buffer (HBSS^++ with 10 mM HEPES, 0.4% faf-BSA for HEK293T cells; HBSS^++ with 25 mM HEPES and 0.01% faf-BSA for HeLa cells, clones, and RAW264.7 cells) in the absence or presence of stimuli, at 37 °C for the indicated times. Incubations were terminated by washing the cells twice with cold HBSS^++, and the analyses were performed as reported below.
Cell lysates were obtained by scraping the cells into phospho-lysis buffer: 50 mM Tris–HCl, pH 7.5, 100 mM NaCl, 5 mM EDTA, 1% Triton X-100, 50 mM NaF, 40 mM β-glycerophosphate, 200 µM sodium orthovanadate, plus protease and phosphatase inhibitors (Roche). Following gentle homogenisation by 20 passages through a 26-gauge needle, the lysates were centrifuged at 10,000×g for 5 min at 4 °C, and the supernatants were collected.
Protein lysates were subjected to SDS-PAGE, and after electrophoresis, the proteins were transferred to a nitrocellulose membrane (PerkinElmer Life Science, Boston, MA, USA). For immunoblotting, the membranes were blocked with 5% non-fat milk in TBS (10 mM Tris–HCl, pH 7.4, 10 mM NaCl) plus 0.1% Tween-20 (T-TBS) for 30 min at room temperature, and incubated with primary antibodies in T-TBS plus 3% BSA for 2 h at room temperature, or overnight at 4 °C. The membranes were washed twice in T-TBS for 7 min, and then incubated with secondary antibodies conjugated to horseradish peroxidase (1:5,000) (Calbiochem, San Diego, CA, USA) in T-TBS with 5% non-fat milk for 30 min at room temperature. The membranes were then washed twice with T-TBS and once with TBS for 5 min, and the signals were detected by ECL (Amersham Pharmacia, Piscataway, NJ, USA). The rabbit anti-phospho AKT (Ser473), anti-phospho p38 (Thr180/Tyr182), anti-phospho p42/44 (Thr202/Tyr204), anti-p38 (all at dilution 1:1000) were from Cell Signaling Technology (Danvers, MA, USA). The rabbit anti-AKT (B-1), and anti-p42/44 (ERK1; K-23) were from Santa Cruz Biotechnology.

ssGPR55 wild-type = assay: GPR55-internalisation assay, wild-type (FACS); conditions: 10 µM soybean LPI
Method: as §1, with “reports. […]” for “reports.”
For the GPR55-internalisation assay, after stimulation, the HeLa cells were washed twice with cold HBSS^++, stained while adhered with the monoclonal anti-HA antibody (1:1000) in PBS plus 3% BSA for 1 h on ice, washed three times with cold PBS, incubated with the Alexa488-tagged anti-mouse antibody (1:800) in PBS plus 3% BSA for 45 min on ice. […] The collected cells were centrifuged at 300×g, suspended in PBS plus 3% BSA, and analysed by FACS.

Substance: lysophosphatidylinositol [LPI]
- LPI-stimulated activation of p38 [1]: no LPI-stimulated activation of p38
- LPI-stimulated activation of ERK2, 5 min ([1]; 5 min): no response at 5 min
- LPI-stimulated activation of ERK2, 10 min ([1]; 10 min): reduced response at 10 min
- ERK2 phosphorylation upon LPI stimulation (endogenous GPR55 (HeLa)): 7.8 -fold basal levels
- p38 phosphorylation upon LPI stimulation (endogenous GPR55 (HeLa)): 2.5 -fold basal levels
- time to plateau of LPI-induced internalisation (ssGPR55 wild-type; overexpressed ssGPR55 in HeLa cells): 10 min
- reduction of cell-surface level of receptor (ssGPR55 wild-type; ssGPR55 wild-type, HeLa, 15 min, three independent experiments): 30%
